Results as given in patent publication US20160310578A1, “METHOD OF ACCELERATING OSTEOGENESIS” (Fuji Nihon Seito Corporation, priority 2015, published 2016).

What was measured:
[1] = test system: osteoblastic cell line MC3T3-E1; assay: Effect of DFA III on the number of osteoblastic cells (MTS, absorbance 490 nm) (Example 3); format: cell-based, mouse; conditions: for light absorbance at 490 nm (relative number of the cells): MC3T3-E1
Experimental: The effect of DFA III on osteoblasts was examined using the osteoblastic cell line MC3T3-E1 isolated from […].
First, 3×10^5 cells of MC3T3-E1 were inoculated in 96 wells containing 90 μL of α-MEM medium containing penicillin (manufactured by Sigma) and streptomycin (manufactured by Sigma) (200 μg/mL). DFA III was added to the culture solution so as to result in concentrations of 10 mM, 50 mM, and 100 mM, and the cells were cultured at 37° C. at a CO2 concentration of 5%. Culturing was performed for five wells each for each of the concentrations, and the number of the cells was counted on day 1, day 4, day 7, and day 14 after culturing.
When counting the number of the cells, the cells were treated with 10 mM trypsin for 30 minutes under the same conditions as the cell culture, and then separated from the well. The cells were then added to 100 μL of MTS solution (manufactured by Promega Corp.), and incubated for 30 minutes under the same conditions as the cell culture, and a light absorbance at the wavelength of 490 nm was measured using a plate reader (“iMark Plate Reader” manufactured by Bio-Rad Laboratories, Inc.). The measured light absorbance represents the relative number of the cells.
The average value of the three from the five wells cultured under the same conditions was taken as the measured value. As a control, the wells were used, where the medium of the wells to which DFA III was not added.

[2] = test system: ovariectomized animals (OVX); assay: Bone tissue analysis by 3D CTR of the femoral articular head in OVX rats (Example 4); format: in vivo, Wistar rats
Experimental: Animal experiments were conducted using ovariectomized animals (OVX). The animals used were 48 female Wistar rats with body weight of approximately 350 g. They were used in the experiments after being preliminarily reared on standard feed (CE-2 manufactured by CLEA Japan, Inc.) for one week after undergoing ovariectomy. All experiments were approved by the Animal Experiment Ethics Committee of CLEA Japan, Inc. and were conducted according to the policies thereof. The standard feed CE-2 manufactured by CLEA Japan, Inc. contains 1.06 g of calcium per 100 g of the feed as calcium carbonate and calcium iodate (according to 2009 periodic analysis average values listed on the website of CLEA Japan, Inc.). After preliminary feeding, 12 OVX rats were divided into groups of three rats each. Group A was reared on feed obtained by adding 3% collagen and 5% DFA III to the standard feed; Group B was reared on feed obtained by only adding the same amount of DFA III; Group C was reared on feed obtained by only adding the same amount of collagen; Group D was reared on the standard feed only. One week, two weeks, three weeks, and one month after the start of feeding, phenobarbital in a dose of 0.5 mg per 10 g of body weight was administered intraperitoneally to anesthetize the rats. Perfusion fixation was performed by injecting 4% paraformaldehyde solution diluted with cacodylate buffer of pH 7.4 and perfusing for 5 minutes from the left ventricle. After fixation, the articular head of the femur and the tibia of the lower limbs were extracted. 3D CTR images of the articular head were taken using a 3D Micro X-ray CTR-mCT2 for experimental animals (manufactured by Rigaku Corp.). From the 3D CTR images that were taken, five images of cross-sections in the same direction were selected, and the bone area and bone marrow area in each individual was measured and the average taken (Table 5 and FIG. 5).

[3] = test system: OVX rats with osseous defect in the epiphyseal area of the tibia; assay: Recovery promoting effect in osseous defect of the tibia in OVX rats, 3D CTR (Example 5); format: in vivo, Wistar rats; conditions: one month
Experimental: Animal experiments were conducted using ovariectomized animals (OVX). The animals used were 48 female Wistar rats with body weight of approximately 350 g. They were used in the experiments after being preliminarily reared on standard feed (CE-2 manufactured by CLEA Japan, Inc.) for one week after undergoing ovariectomy. All experiments were approved by the Animal Experiment Ethics Committee of CLEA Japan, Inc. and were conducted according to the policies thereof. The standard feed CE-2 manufactured by CLEA Japan, Inc. contains 1.06 g of calcium per 100 g of the feed as calcium carbonate and calcium iodate (according to 2009 periodic analysis average values listed on the website of CLEA Japan, Inc.).
Using 12 OVX rats after preliminary feeding, phenobarbital in a dose of 0.5 mg per 10 g of body weight was administered intraperitoneally to anesthetize the rats. An incision was made in the skin on the upper portion of the knee joint, and then the knee joint was exposed, and a hole approximately 0.5 mm in diameter was made using a dental round bur in the epiphyseal area of the tibia, and then the incision was sutured.
After the surgery, the rats were divided into four groups of three rats each. Group A was reared on feed obtained by adding 3% collagen and 5% DFA III to the standard feed; Group B was reared on feed obtained by only adding the same amount of DFA III; Group C was reared on feed obtained by only adding the same amount of collagen; Group D was reared on the standard feed only.
After one month of feeding, the same anesthesia was performed, and perfusion fixation was performed with 4% paraformaldehyde from the left ventricle in the same manner as the femur experiment. After fixation, the region where the surgery was performed was extracted, and after washing with 0.8 M cacodylate buffer adjusted to pH 7.4, 3D CTR images were taken using the CTR apparatus mentioned above (FIG. 6).
The bone area and the bone marrow area were measured using five images of the osseous defect in the same manner as in Example 4 (Table 6).

[4] = 3% collagen and/or 5% DFA III in standard feed, one month, articular head of femur
[5] = 3% collagen and/or 5% DFA III in standard feed

## OC[C@H]1O[C@@]2(CO[C@]3(CO)O[C@H](CO)[C@@H](O)[C@@H]3O2)[C@@H](O)[C@@H]1O [DFA III, Difructose anhydride III]
[1]; 10 mM DFA III, 1 Day after culture
  light absorbance at 490 nm (relative number of the cells): 0.309
[1]; 10 mM DFA III, 4 Day after culture
  light absorbance at 490 nm (relative number of the cells): 0.323
[1]; 10 mM DFA III, 7 Day after culture
  light absorbance at 490 nm (relative number of the cells): 0.388
[1]; 10 mM DFA III, 14 Day after culture
  light absorbance at 490 nm (relative number of the cells): 0.736
[1]; 50 mM DFA III, 1 Day after culture
  light absorbance at 490 nm (relative number of the cells): 0.305
[1]; 50 mM DFA III, 4 Day after culture
  light absorbance at 490 nm (relative number of the cells): 0.380
[1]; 50 mM DFA III, 7 Day after culture
  light absorbance at 490 nm (relative number of the cells): 0.430
[1]; 50 mM DFA III, 14 Day after culture
  light absorbance at 490 nm (relative number of the cells): 0.849
[1]; 100 mM DFA III, 1 Day after culture
  light absorbance at 490 nm (relative number of the cells): 0.321
[1]; 100 mM DFA III, 4 Day after culture
  light absorbance at 490 nm (relative number of the cells): 0.390
[1]; 100 mM DFA III, 7 Day after culture
  light absorbance at 490 nm (relative number of the cells): 0.438
[1]; 100 mM DFA III, 14 Day after culture
  light absorbance at 490 nm (relative number of the cells): 0.988
[1]; MC3T3-E1, conclusion from Table 4
  effect on cell division of osteoblasts: stimulates cell division of osteoblasts
[1]; day 1, day 4 and day 7 after culturing
  cell number values versus control group: control group exhibited higher values
[1]; day 14 after culturing, 10, 50 and 100 mM
  cell number values versus control group: higher values than the control group
[2]; 3% collagen and/or 5% DFA III in standard feed, one month
  Proportion of bone in articular head (%): 56.1%
[2]; [4]
  Bone area (average): 320.0 μm^2
  Bone marrow area (average): 250.9 μm^2
  Total area: 570.9 μm^2
[2]; one month, FIG. 4
  CTR images: compact bone and cancellous bone, comparison of the groups: No marked difference
[2]; one month, compared with standard feed only
  increase of the proportion of bone in the articular head versus control Group D: 10.2%
[2]; summary of Example 4
  more bone tissue than the group fed standard feed alone: approximately 10%
[3]; [5]
  Bone area: 90.7 μm^2
  Bone marrow area: 704.8 μm^2
  Total area: 795.5 μm^2
[3]
  Proportion of bone in all bone (%): 11.4%
  proportion of new bone formation greater than control Group D: 4.6%
